Results as given in publication PMC12321279, “Novel 4,5‐Dihydrothiazole‐Phenylpiperazine Derivatives: Synthesis, Docking Studies and Pharmacological Evaluation as Serotonergic Agents” (Chemmedchem, 2025).

Tested on: mice
Assay: Novel object recognition (NOR) test
Type: in vivo
Conditions: doses of 30 and 15 mg kg^−1 i.p. 60 min prior to first trial
Method: The tests were performed on male white mice of the Albino Swiss strain, whose weight was between 24 and 30 g in Experimental Medicine Center, Medical University of Lublin, Poland. The animals were housed (four/five per cage). Before conducting the experimental tests, the animals were subjected to an adaptation that lasted seven days. This consisted of keeping them in a room with relatively constant conditions: a temperature of 22 ± 1 °C, a humidity of 55 ± 5% and lighting that mimicked the natural day and night rhythm (12 h/12 h). Constant access to food and water was provided. Standard feed—LSM Motycz pelleted feed—and tap water were used. Mice were randomly allocated to study groups. Each group was represented by 8–10 animals, depending on the research schedule. […]
The setup for the NOR test consisted of a square, open‐ended Plexiglas box (46 cm long × 35 cm high × 33 cm wide), with a 10‐lux light source suspended 50 cm above it. […] The duration of exploration of each object at T1, T2, and T3 was manually recorded using a stopwatch. The discrimination between F and N during T2 or T3 was assessed by comparing the time spent exploring each of them. Memory performance was assessed using the DI, calculated as (N − F)/ (N + F), representing the difference in exploration time between N and F, normalized by the total exploration time for both objects. […]

Compound: O=C1C2C3C=CC(C3)C2C(=O)N1OCCCN1CCN(c2ccccc2C2=NCCS2)CC1 (stereo not shown) [FG‐7, 2‐(3‐(4‐(2‐(4,5‐dihydrothiazol‐2‐yl) phenyl) piperazin‐1‐yl) propoxy)‐3a,4,7,7a‐tetrahydro‐1 H‐4,7‐methanoisoindole‐1,3(2 H)‐dione]
- NOR test, memory consolidation expressed by the discrimination index (DI): showed activity in the novel object recognition (NOR) test
